Experiment [1] concerns tibialis anterior (TA) muscle. Nature of the experiment: Cardiotoxin-induced muscle damage, regeneration of TA muscle. The format is in vivo, C57BL/6J mice. The settings on record: for PAX7-positive MuSCs after CTX-induced damage: 7 days after CTX. As to the method: Cardiotoxin-induced muscle damage. Animals were anesthetized using Isoflurane in oxygen from a precision vaporizer. 50 μl of 20 μM Naje mossambica mossambica cardiotoxin (Sigma) was injected intramuscularly cross the skin and directly into the tibialis anterior (TA) muscle. Mice were sacrificed at 7 and 14 days after injury. TA muscles were immediately embedded in Thermo Scientific™ Shandon™ Cryomatrix™ and frozen in isopentane, cooled in liquid nitrogen, for 2 mins before being transferred to dry ice and stored at −80° C.
Histology. TA muscles were harvested from anaesthetized mice and immediately frozen in Tissue-TEK® OCT compound (PST). 8-μm cryosections were collected and fixed with 4% paraformaldehyde, which are either stained with haematoxylin/eosin (HE) or antibodies. For immunostainings, heat activated antigen retrieval was performed in pH 6.0 citrate buffer for 10 min at 65° C. After washing with PBS-0.1% tween 20 (PBST), the sections were blocked with 10% affinipure Fab goat anti mouse IgG (Jackson Immunoresearch) in PBST for 60 min and PBST containing 2% BSA and 5% goat serum for 30 min at room temperature. Primary antibodies were then applied over night at 4° C. The following antibodies were used: anti-eMHC (Developmental Studies Hybridoma Bank, DSHB, University of Iowa), anti-Pax7 (DSHB, University of Iowa), anti-Laminin (Sigma). Subsequently, the slides were washed in PBST and incubated with appropriate secondary antibodies and labeling dyes. For immunofluorescence, secondary antibodies were coupled to Alexa-488 or Alexa-568 fluorochromes (Life technology), and nuclei were stained with DAPI (Invitrogen). After washing in PBST, tissue sections were mounted with Dako mounting medium (Dako).

In a further experiment the test system is C2C12 myoblasts. Put plainly: Respirometry on C2C12 myoblasts (OCR, ECAR). The format is cell-based, mouse. Conditions: C2C12 cells, NR vs PBS for 6 hours, FIG. 4J. As to the method: Cell culture and treatments were prepared according to description of Example 3. C2C12 mouse myoblasts were grown in DMEM (4.5 g/1 glucose, Gibco) supplemented with 10% FBS and penicillin/streptomycin (1×, Gibco). Cell transformation with Phb (Santa Cruz) and Phb2 shRNA (Santa Cruz) were performed using jetPEI DNA transfection kit (Polyplus), according to manufacturer's instructions. Cells were treated with 1 mM NR or PBS for 6 hours before cell harvesting or fixation. Respirometry on C2C12 myoblasts. Basal and uncoupled oxygen consumption rates (OCRs) and the extracellular acidification rate (ECAR) was measured using the Seahorse extracellular flux bioanalyzer (XF96, Seahorse Bioscience Inc.). To uncouple mitochondria, 5 uM of FCCP was injected after a basal respiration measurement. All measurements were performed in triplicates and results were normalized to total protein amount (C2C12 cells), assessed using a Bradford kit (Bio-Rad).

As for `NC(=O)c1ccc[n+]([C@@H]2O[C@H](CO)[C@@H](O)[C@H]2O)c1` [NR, nicotinamide riboside], in experiment [1] (aged mice, 7 and 14 days of regeneration, FIG. 3H), the “muscle regeneration after CTX-induced muscle damage (H/E)” value is on record as “accelerated muscle regeneration”. Further, the “PAX7-positive MuSCs after CTX-induced damage” value in experiment [1] (aged mice, FIG. 3I-J) is “increases in PAX7-positive MuSCs”. Besides, the “embryonic myosin heavy chain (eMyHC) staining, newly regenerated fibers” value in experiment [1] (aged mice, 7 days after CTX-induced damage, FIG. 3L) is listed as “improvements in embryonic myosin heavy chain staining”. Moreover, the “MYOD1-positive PAX7 immunostained cells (stemness)” value in experiment [1] (aged mice, 7 days after muscle damage, FIG. 3K) is given as “reduction in MYOD1-positive PAX7 immunostained cells”. Besides, in experiment [1] (young mice), the “muscle regeneration after CTX-induced muscle damage” value was “accelerated muscle regeneration” and the “PAX7-positive MuSCs after CTX-induced damage” value is recorded as “trend to increase”. Also, in the experiment on C2C12 myoblasts, the “glycolysis (ECAR)” value is “reductions in glycolysis” and the “oxidative respiration (OCR)” value is recorded as “increases in oxidative respiration”.
